The source of these data is publication PMC11651168, “Effective, but Safe? Physiologically Based Pharmacokinetic (PBPK)-Modeling-Based Dosing Study of Molnupiravir for Risk Assessment in Pediatric Subpopulations” (ACS Pharmacology & Translational Science, 2024).

A short description of data set [1]: PAMPA permeability assay. Type of data set: in vitro ADME. The procedure: For the PAMPA assay, a PAMP-096 kit from BioAssay Systems was used. Theophyllin, chloramphenicol, and diclofenac were used as low, high, and medium permeability controls, respectively. The assay was conducted as described in the manufacturer’s protocol. For all compounds, 10 mg/mL DMSO stocks were used. Compound concentrations were determined using HPLC-MS/MS. For the HPLC-MS measurements, samples were analyzed using an Agilent 1290 Infinity II HPLC system coupled to an AB Sciex QTrap 6500plus as described below. Permeability was determined as follows in eqs 2 and 3.
Effective permeability (Peff) was calculated using the following formula [drawing 2] 2 [drawing 3] 3 where the PAt is average peak area of the test compound or permeability standard and PAE is the peak area of the equilibrium standard. The value of C was calculated by the following formula, where donor volume (VD) is 0.2 cm^3, acceptor volume (VA) is 0.3 cm^3, membrane area is 0.24 cm^2, and incubation time is 72,360 s.
(§1) Samples were analyzed using an Agilent 1290 Infinity II HPLC system coupled to an AB Sciex QTrap 6500plus mass spectrometer. LC conditions were as follows: column: Agilent Zorbax Eclipse Plus C18, 50 × 2.1 mm, 1.8 μm; temperature: 30 °C; injection volume: 1 μL per sample; flow rate: 700 μL/min. Samples were collected under the following conditions. Solvents: A: 100% water +0.1% HCOOH; solvent B: 100% ACN +0.1% HCOOH. The gradient was as follows: 99% A at 0 min, 99% A until 1 min, 99–0% A from 1 to 3 min, 99% A until 3.2 min. Mass transitions are depicted in Table S1. Peaks of samples were quantified by using relative quantification. Data analysis was performed by using Multiquant 3.0 software (AB Sciex).

The conditions of data set [2]: cited from earlier work.
The test system of data set [3] is rats. Set-up: method as in earlier work. The following applies: over three months; cited from earlier work.
A short description of data set [4]: Plasma stability assay. The data set is classed as in vitro ADME. The following applies: for half-life: plasma. The procedure: (§2) First, for the construction of the adult molnupiravir-NHC PBPK model, the physicochemical properties were incorporated. Moreover, ADME in vitro assays were performed to allow a better estimation of in vivo PK behavior. In particular, the plasma stability and the metabolic stability assays were used to derive information on the half-life of molnupiravir and the subsequent generation of NHC. […] This information was taken into account during parameter optimization. […] The determination of the log P value yielded information for calculation of the partition coefficients. […] This value was used as a basis for the subsequent parameter optimization. As NHC is further converted to NHC-TP, which is cleared via the endogenous nucleoside pool, renal clearance as well as hepatic clearance, indicated by our in vitro data, is not involved in clearance.
(§3) The plasma protein binding assay, the plasma stability assay, and the metabolic stability assay were performed as described previously.[30] For all of the assays, NHC and molnupiravir were used. Molnupiravir and NHC were purchased from Merck/Sigma.

The subject of data set [5] is dogs. In words: Preclinical toxicity study in dogs. The settings on record: allometric scaling of 50 mg/kg/day in dogs, scaling factors of ref 38.
Data set [6] is described as follows: Pediatric PBPK model for neonates, infants and children in early childhood (PK-Sim). The arrangement: species or system human.
The nature of data set [7]: Plasma protein binding assay. The data set is classed as in vitro ADME. The following applies: 2 h incubation; for fraction unbound at 2 h: plasma. As to the method:
as §2, §3

For data set [8] the following is noted: cited from earlier work. This is another data set of the same source.
In data set [9] the test system is dogs. The following applies: 14 days; cited from earlier work.
Data set [10] is described as follows: Microsomal metabolic stability assay. The settings on record: microsomes; for microsomal CLint: microsomal metabolic stability (Clint; in vitro). Type of data set: in vitro ADME. The procedure: as §2, §3
Data set [11] relates to rats. Description: Preclinical bone and cartilage toxicity in rats. The following applies: allometric scaling of 500 mg/kg/day in rats, scaling factors of ref 38.
The conditions of data set [12]: cited from earlier work. This is another data set of the same source.
For data set [13], the system named is SARS-CoV-2 wildtype. Set-up: method as in Wen et al., 2023 (36). The following applies: ref Wen et al., 2023 (36), read-out: Antiviral activity, EC50; cited from earlier work.
Data set [14] deals with SARS-CoV-2 omicron BA.1 lineage. Set-up: method as in Wen et al., 2023 (36). The settings on record: ref Wen et al., 2023 (36), read-out: Antiviral activity, EC50; cited from earlier work.
For data set [15], the system named is SARS-CoV-2 beta. Set-up: method as in Wen et al., 2023 (36). The settings on record: ref Wen et al., 2023 (36), read-out: Antiviral activity, EC50; cited from earlier work.
In data set [16] the test system is SARS-CoV-2 omicron BA.2 lineage. The arrangement: method as in Wen et al., 2023 (36). The following applies: ref Wen et al., 2023 (36), read-out: Antiviral activity, EC50; cited from earlier work.
Data set [17] can be described thus: Experimental determination of log P (octan-1-ol/water). The data set is classed as physicochemical. The following applies: data from in vitro studies. The procedure:
The log P experiment was performed for molnupiravir and its metabolite NHC. Octan-1-ol and water were saturated 24 h prior to the start of the experiment. Each compound was added to the octan-1-ol phase at a final concentration of 100 ng/mL. Two setups were used: octan-1-ol/water (1:1) and octan-1-ol/water (1:10). After addition of the compound, each phase was shaken at 2000 rpm for 1 h, and then, phases were separated by centrifugation at 13,000 rpm for 5 min at 4 °C. From each sample, 10 μL of water layer and octanol layer was diluted to 100 μL with DMSO for high-performance liquid chromatography tandem mass spectrometry (HPLC-MS/MS) analysis. The log P was calculated by Formula 1. [drawing 1] 1
as §1, with “Data analysis was performed by using Multiquant 3.0 software (AB Sciex).” left out

Data set [18] concerns SARS-CoV-2 alpha. Set-up: method as in Wen et al., 2023 (36). The following applies: ref Wen et al., 2023 (36), read-out: Antiviral activity, EC50; cited from earlier work.
For data set [19], the system named is SARS-CoV-2 delta. Set-up: method as in Wen et al., 2023 (36). The settings on record: ref Wen et al., 2023 (36), read-out: Antiviral activity, EC50; cited from earlier work.

Like-named read-outs stand apart in the source and are kept apart here. Marks after values point to notes of the source that are not given here.

The half-life is the time needed for the level to fall by half in the phase considered. A word on the fraction unbound: it is free concentration divided by total concentration. A higher fraction unbound goes with much free substance. For orientation: Tmax means the time from dosing to the highest level. As a reminder, the microsomal CLint is a measure of how fast metabolising enzymes remove a compound, apart from limits set by blood flow. Higher therefore signals faster metabolism. The pKa is the pH at which an ionisable group is half protonated. With `CC(C)C(=O)OC[C@H]1O[C@@H](n2ccc(NO)nc2=O)[C@H](O)[C@@H]1O` [Molnupiravir], in data set [1], the “permeability (in words)” value was “moderate permeability”. Also, the “permeability (PAMPA)” value in [1] (72360 s) is listed as 3.1 10^–6 cm/s. In addition, in data set [1] (data from in vitro studies, read-out: specific intestinal permeability (converted)), the Papp at 72360 s was 3.1 ×10⁻⁶ cm/s. For the same compound, the solubility in data set [2] is 41[21] mg/mL. Besides, in data set [3], the “dose at which bone and cartilage toxicity was observed” value is given as “exceeding 500 mg/kg/day”. Besides, in data set [4], the “plasma stability (in words)” value is “degraded rapidly in plasma” and the half-life was below 0.25 h. Further, the “human equivalent dose of the nonobserved toxicity dose in dogs” value in data set [5] came out at 27 mg/kg/day. Moreover, the “fold higher doses needed in pediatric subpopulations for similar efficacy to adults” value in data set [6] was 2–3 fold. Besides, in [7], the “plasma protein binding (%)” value is on record as 38.08 ^b % and the fraction unbound at 2 h is around 0.62. Further, in data set [8] (concomitant food consumption), the “decrease in Cmax with food (ratio)” value is 1.6 and the “effect of food on total exposure (AUC0–∞)” value is “not impacted”. Besides, the Tmax in data set [8] (with concomitant food consumption) is 3.0 h. For the same compound, the Tmax in data set [8] (without food) is recorded as 1.0 h. Besides, the “dose at which no toxicity was observed” value in data set [9] was 50 mg/kg/day. Besides, in data set [10], the “microsomal metabolic stability (Clint; in vitro)” value is given as 40.6 ^b μL/min/mg protein and the microsomal CLint was around 40 µL/min/mg. For the same compound, the “human equivalent dose of the toxicity-associated rat dose” value in data set [11] is “around 80 mg/kg/day”. Moreover, the pKa in data set [12] (first of three values) was 2.2. For the same compound, the pKa in data set [12] (second of three printed values) was 10.2. Moreover, in [12] (third of three printed values), the pKa is reported as 12.0.
The term EC50 denotes the concentration giving half of the maximal effect. What is called logP is the decadic logarithm of the partition coefficient of the neutral form, usually between octanol and water. Low values mean a more hydrophilic compound, high ones a more lipophilic compound. On to `O=c1nc(NO)ccn1[C@@H]1O[C@H](CO)[C@@H](O)[C@H]1O` [NHC, β-D-N4-hydroxycytidine], for which the EC50 was 300 nM in data set [13]; 280 nM in data set [14]; 480 nM in [15]; 670 nM in [16]; 530 nM in [18]; 890 nM in data set [19]. In data set [2], the solubility is 21[21] mg/mL. In addition, in data set [4], the “plasma stability (in words)” value is “stable in plasma”. The compound also had a half-life in data set [4] above 4 h. Besides, the “plasma protein binding (%)” value in [7] is reported as 38.84 ^b %. The compound also showed a fraction unbound at 2 h in data set [7] of around 0.64. The logP in data set [17] was 0.1. Further, in data set [10], the microsomal CLint was around 11.6 µL/min/mg. Also, the pKa in [12] (model input, source not given) is given as 12.30.
